Measurements published in US20230122967A1, “NOVEL COMPOUNDS AS INHIBITORS OF PCSK9” (SHENGKE PHARMACEUTICALS (JIANGSU) LTD., priority 2020, published 2023).

Experiments:
Type in all cases: cell-based
[1] = tested on: PCSK9 mRNA; assay: RT-Q-PCR analysis of PCSK9 mRNA in HepG2 cells; settings: Homo sapiens, 24 h, normalized to GAPDH, read-out: HepG2 Q-PCR PCSK9 mRNA level decrease (10 μM)
Description: HepG2 cells (ATCC, Cat.: HB-8065) were maintained in Growth medium-Eagle's Minimum Essential Medium (Corning, 10-010-CVR), 10% FBS (Gibco, 10099-141), Penicillin (100 units/mL), Streptomycin ([…]). HepG2 cells were incubated at 37° C., 5% CO2.
Cells were cultured in growth medium as described above and treated with the vehicle, Berberine or test compound for 24 h. The RNA was extracted using the Total RNA mini Kit (Tiangen, Beijing, China) according to the manufacturer's instructions. Reverse transcription was carried out using the High-Capacity cDNA reverse transcription kit (Thermo Fisher Scientific). Quantitative real-time PCR was performed using a reaction mixture containing cDNA, specific primers [PCSK9, 5′-[…]-3′ (forward) and 5′-[…]-3′ (reverse); GAPDH, 5′-[…]-3′ (forward) and 5′-[…]-3′ (reverse)] and Maxima SYBR Green/ROX qPCR Master Mix (Thermo Fisher Scientific). PCR amplification was carried out in a Real-Time PCR System. The real-time PCR conditions were 37° C. 10 min; 95° C. 10 min; 95° C. 15 s, 60° C. 30 s, 72° C. 30 s, 40 cycle. The amount of % RNA was normalized to the GAPDH level in the same samples.

[2] = tested on: PCSK9; assay: PCSK9 ELISA on HepG2 culture medium; settings: HepG2 cells, 24 hr
Description: (§1) HepG2 cells (ATCC, Cat.: HB-8065) were maintained in Growth medium-Eagle's Minimum Essential Medium (Corning, 10-010-CVR), 10% FBS (Gibco, 10099-141), Penicillin (100 units/mL), Streptomycin ([…]). HepG2 cells were incubated at 37° C., 5% CO2. HepG2 cells were plated in flat bottom 96-well plates (Corning, 3599) at 40,000 cells/well in 100 μL of growth media. After an overnight incubation, the culture media were changed to serum-free OptiMEM media (Gibco, 31985-062), 90 μL/well. Vehicle, PF-06446846 hydrochloride, berberine, or test compound was added to the culture media, 10 μL/well. After 24 hr medium was harvested, and 10 μL of the medium were used for the PCSK9 ELISA (R&D Systems, SPC900).

[3] = tested on: HepG2 cells; assay: Cell viability assay (HepG2 Survival assay, CellTiter-Glo); settings: 24 hr, cellular ATP levels
Description: as §1, with “black clear” for “flat”, “3063)” for “3599)”, “cellular ATP levels” for “medium was harvested, and 10 μL of the medium”, “measured using CellTiter-Glo® 2.0 Assay (Promega, G9242).” for “used for the PCSK9 ELISA (R&D Systems, SPC900).”

SMILES | inhibition at 10 µM [1] | HepG2 PCSK9 ELISA (10 μM) % inhibition [2] | HepG2 Survival assay (10 μM) [3]
O=C(CN(CC(=O)NC1Cc2ccccc2C1)C(=O)c1cc2ccccc2[nH]1)Nc1ccc(Oc2ccccc2)cc1 [Compound 201-11] | 79.3% | 38% | 100%
O=C(CN(CC(=O)NC1Cc2ccccc2C1)C(=O)c1cc2cccc(F)c2[nH]1)Nc1ccc(Oc2ccc(F)cc2)cc1 [Compound 201-13] | 93.3% | 64% | 97%
CN(C(=O)CN(CC(=O)NC1Cc2ccccc2C1)C(=O)c1cc2cccc(F)c2[nH]1)c1ccc(Oc2ccc(F)cc2)cc1 [Compound 201-14] | 89.5% | 41% | 93%
O=C(CN(CC(=O)NC1Cc2ccccc2C1)C(=O)c1cc2cccc(F)c2[nH]1)Nc1ccc(Oc2ccccc2)cc1 [Compound 201-15] | 95.2% | 46% | 100%
O=C(CN(CC(=O)Nc1ccc(Oc2ccc(F)cc2)cc1)C(=O)c1cc2cc(F)ccc2[nH]1)NCc1ccccc1F [Compound 201-37] | 63% | 50% | 100%
O=C(CN(CC(=O)Nc1ccc(Oc2ccc(F)cc2)cc1)C(=O)c1cc2ccccc2[nH]1)NCc1ccccc1F [Compound 201-41] | 75% | 72% | 100%
O=C(CN(CC(=O)Nc1ccc(Oc2ccccc2)cc1)C(=O)c1cc2ccccc2[nH]1)NCc1ccccc1F [Compound 201-43] | 77% | 60% | 100%
O=C(CN(CC(=O)Nc1ccc(Oc2ccc(F)cc2)cc1)C(=O)c1cc2cccc(F)c2[nH]1)NCc1ccccc1F [Compound 201-45] | 80% | 60% | 100%
CN(C(=O)CN(CC(=O)NCc1ccccc1F)C(=O)c1cc2cccc(F)c2[nH]1)c1ccc(Oc2ccc(F)cc2)cc1 [Compound 201-46] | 46% | 33% | 100%
O=C(CN(CC(=O)Nc1ccc(Oc2ccccc2)cc1)C(=O)c1cc2cccc(F)c2[nH]1)NCc1ccccc1F [Compound 201-47] | 90% | 70% | 99%
CN(Cc1ccccc1)C(=O)CN(CC(=O)Nc1ccc(Oc2ccc(F)cc2)cc1)C(=O)c1cc2c(F)cccc2[nH]1 [Compound 201-49] | 77% | 50% | 100%
CN(Cc1ccccc1)C(=O)CN(CC(=O)N(C)c1ccc(Oc2ccc(F)cc2)cc1)C(=O)c1cc2c(F)cccc2[nH]1 [Compound 201-50] | 77% | 47% | 100%
CN(Cc1ccccc1)C(=O)CN(CC(=O)Nc1ccc(Oc2ccccc2)cc1)C(=O)c1cc2c(F)cccc2[nH]1 [Compound 201-51] | 75% | 55% | 93%
CN(Cc1ccccc1)C(=O)CN(CC(=O)N(C)c1ccc(Oc2ccccc2)cc1)C(=O)c1cc2c(F)cccc2[nH]1 [Compound 201-52] | 79% | 45% | 100%
CN(Cc1ccccc1)C(=O)CN(CC(=O)Nc1ccc(Oc2ccc(F)cc2)cc1)C(=O)c1cc2cc(F)ccc2[nH]1 [Compound 201-53] | 80% | 50% | 100%
CN(Cc1ccccc1)C(=O)CN(CC(=O)N(C)c1ccc(Oc2ccc(F)cc2)cc1)C(=O)c1cc2cc(F)ccc2[nH]1 [Compound 201-54] | 61% | 52% | 100%
CN(Cc1ccccc1F)C(=O)CN(CC(=O)Nc1ccc(Oc2ccc(F)cc2)cc1)C(=O)c1cc2cccc(F)c2[nH]1 [Compound 201-69] | 78% | 80% | 92%
CN(Cc1ccccc1F)C(=O)CN(CC(=O)Nc1ccc(Oc2ccc(F)cc2)cc1)C(=O)c1cc2ccccc2o1 [Compound 201-85] | 70% | 46% | 100%
CN(Cc1ccccc1F)C(=O)CN(CC(=O)Nc1ccc(Oc2ccccc2)cc1)C(=O)c1cc2ccccc2o1 [Compound 201-91] | 58% | 40% | 100%
CN(Cc1ccccc1F)C(=O)CN(CC(=O)Nc1ccc(Oc2ccc(F)c(F)c2)cc1)C(=O)c1cc2ccccc2o1 [Compound 201-97] | 37% | 48% | 100%
CN(Cc1ccccc1F)C(=O)CN(CC(=O)Nc1ccc(Oc2ccc(F)cc2)cc1)C(=O)c1ccc(C(F)(F)F)o1 [Compound 201-103] | 85% | 86% | 100%
CN(Cc1ccccc1F)C(=O)CN(CC(=O)Nc1ccc(Oc2ccccc2)cc1)C(=O)c1ccco1 [Compound 201-127] | 92% | 74% | 90%
CN(Cc1ccccc1F)C(=O)CN(CC(=O)Nc1ccc(Oc2ccc(F)c(F)c2)cc1)C(=O)c1ccco1 [Compound 201-133] | 92% | 98% | 100%
O=C(CN(CC(=O)Nc1ccc(Oc2ccc(C(F)(F)F)cc2)cc1)C(=O)c1ccc(C(F)(F)F)o1)NCc1ccccc1 [Compound 201-209] |  | 91% | 92%
CC(C)c1ccc(Oc2ccc(NC(=O)CN(CC(=O)NCc3ccccc3)C(=O)c3ccc(C(F)(F)F)[nH]3)cc2)cc1 [Compound 201-249] |  | 85% | 97%
O=C(CN(CC(=O)Nc1ccc(Oc2ccccc2)cc1)C(=O)c1cc2cccc(F)c2[nH]1)Nc1ccccc1 [Compound 201-258] |  | 69% | 97%
CC(C)c1ccc(Oc2ccc(NC(=O)CN(CC(=O)Nc3ccccc3)C(=O)c3ccc(C(F)(F)F)o3)cc2)cc1 [Compound 201-261] |  | 60% | 99%
O=C(CN(CC(=O)Nc1ccc(Oc2ccc(C(F)(F)F)cc2)cc1)C(=O)c1ccc(C(F)(F)F)[nH]1)Nc1ccccc1 [Compound 201-263] |  | 84% | 88%
